Reference: US9944602B2, “Piperidinone herbicides” (E. I. DU PONT DE NEMOURS AND COMPANY, priority 2014, dated 2018)

How the values were obtained:
Format in all cases: in vivo
[1] = test system: barnyardgrass (Echinochloa crus-galli); experiment: Test A preemergence barnyardgrass; details: 0 to 100 scale, 0 no effect, 100 complete control
Procedure, shortened: (§1)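 Greenhouse pot test: chemicals formulated with surfactant in non-phytotoxic solvent, sprayed on soil at seeding (pre) or on 1–2 leaf seedlings of 2–10 cm (post). Rating ~10 d later, visual, 0 = no effect to 100 = complete control, relative to untreated controls.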

[2] = test system: kochia (Kochia scoparia); experiment: Test A preemergence kochia; details: 0 to 100 scale, 0 no effect, 100 complete control
Procedure, shortened: as §1

[3] = test system: ragweed (common ragweed, Ambrosia elatior); experiment: Test A preemergence ragweed; details: 0 to 100 scale, 0 no effect, 100 complete control
Procedure, shortened: as §1

[4] = test system: ryegrass, Italian (Italian ryegrass, Lolium multiflorum); experiment: Test A preemergence ryegrass, Italian; details: 0 to 100 scale, 0 no effect, 100 complete control
Procedure, shortened: as §1

[5] = test system: foxtail, giant (giant foxtail, Setaria faberii); experiment: Test A preemergence foxtail, giant; details: 0 to 100 scale, 0 no effect, 100 complete control
Procedure, shortened: as §1

[6] = test system: pigweed (Amaranthus retroflexus); experiment: Test A preemergence pigweed; details: 0 to 100 scale, 0 no effect, 100 complete control
Procedure, shortened: as §1

[7] = test system: barnyardgrass (Echinochloa crus-galli); experiment: Test A postemergence barnyardgrass; details: 0 to 100 scale, 0 is no effect, 100 is complete control
Procedure, shortened: as §1

[8] = test system: kochia (Kochia scoparia); experiment: Test A postemergence kochia; details: 0 to 100 scale, 0 is no effect, 100 is complete control
Procedure, shortened: as §1

[9] = test system: ragweed (common ragweed, Ambrosia elatior); experiment: Test A postemergence ragweed; details: 0 to 100 scale, 0 is no effect, 100 is complete control
Procedure, shortened: as §1

[10] = test system: ryegrass, Italian (Italian ryegrass, Lolium multiflorum); experiment: Test A postemergence ryegrass, Italian; details: 0 to 100 scale, 0 is no effect, 100 is complete control
Procedure, shortened: as §1

[11] = test system: foxtail, giant (giant foxtail, Setaria faberii); experiment: Test A postemergence foxtail, giant; details: 0 to 100 scale, 0 is no effect, 100 is complete control
Procedure, shortened: as §1

[12] = test system: pigweed (Amaranthus retroflexus); experiment: Test A postemergence pigweed; details: 0 to 100 scale, 0 is no effect, 100 is complete control
Procedure, shortened: as §1

[13] = test system: wheat (Triticum aestivum); experiment: Test A postemergence wheat; details: 0 to 100 scale, 0 is no effect, 100 is complete control
Procedure, shortened: as §1

[14] = test system: corn (Zea mays); experiment: Test A postemergence corn; details: 0 to 100 scale, 0 is no effect, 100 is complete control
Procedure, shortened: as §1

[15] = test system: blackgrass (Alopecurus myosuroides); experiment: Test A postemergence blackgrass; details: 0 to 100 scale, 0 is no effect, 100 is complete control
Procedure, shortened: as §1

[16] = test system: galium (catchweed bedstraw, Galium aparine); experiment: Test A postemergence galium; details: 0 to 100 scale, 0 is no effect, 100 is complete control
Procedure, shortened: as §1

[17] = test system: rice (Oryza sativa); experiment: Test B flooded paddy test rice; details: Table B, Flood, scale 0 to 100
Procedure, shortened: (§2)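 Plants grown to the 2-leaf stage; pots flooded to 3 cm above soil at treatment, compound applied directly into paddy water, depth held throughout. Greenhouse 13 to 15 d, then visual evaluation against untreated controls.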

[18] = test system: sedge, umbrella (small-flower umbrella sedge, Cyperus difformis); experiment: Test B flooded paddy test sedge, umbrella; details: Table B, Flood, scale 0 to 100
Procedure, shortened: as §2

[19] = test system: ducksalad (Heteranthera limosa); experiment: Test B flooded paddy test ducksalad; details: Table B, Flood, scale 0 to 100
Procedure, shortened: as §2

[20] = test system: barnyardgrass (Echinochloa crus-galli); experiment: Test B flooded paddy test barnyardgrass; details: Table B, Flood, scale 0 to 100
Procedure, shortened: as §2

| Structure (SMILES) | Barnyardgrass plant response rating ([1]; 125 g ai/ha) | Barnyardgrass plant response rating ([1]; 500 g ai/ha) | Kochia plant response rating ([2]; 125 g ai/ha) | Kochia plant response rating ([2]; 500 g ai/ha) | Ragweed plant response rating ([3]; 125 g ai/ha) | Ragweed plant response rating ([3]; 500 g ai/ha) | Ryegrass, Italian plant response rating ([4]; 125 g ai/ha) | Ryegrass, Italian plant response rating ([4]; 500 g ai/ha) | Foxtail, Giant plant response rating ([5]; 125 g ai/ha) | Foxtail, Giant plant response rating ([5]; 500 g ai/ha) | Pigweed plant response rating ([6]; 125 g ai/ha) | Pigweed plant response rating ([6]; 500 g ai/ha) | Plant response rating, Barnyardgrass ([7]; 125 g ai/ha) | Plant response rating, Barnyardgrass ([7]; 500 g ai/ha) | Plant response rating, Kochia ([8]; 125 g ai/ha) | Plant response rating, Kochia ([8]; 500 g ai/ha) | Plant response rating, Ragweed ([9]; 125 g ai/ha) | Plant response rating, Ragweed ([9]; 500 g ai/ha) | Plant response rating, Ryegrass, Italian ([10]; 125 g ai/ha) | Plant response rating, Ryegrass, Italian ([10]; 500 g ai/ha) | also measured |
| --- | --- | --- | --- | --- | --- | --- | --- | --- | --- | --- | --- | --- | --- | --- | --- | --- | --- | --- | --- | --- | --- |
| O=C1NCCC(c2cccc(OC(F)F)c2)C1C(=O)Nc1ccc(F)c(F)c1F (racemic) [Compound 44] | 60 | 90 | 0 | 0 | 0 | 30 | 0 | 0 | 80 | 90 | 0 | 0 | 20 | 80 | 0 | 0 | 0 | 0 | 0 | 20 | Plant response rating, Foxtail, Giant ([11]; 125 g ai/ha): 30; Plant response rating, Foxtail, Giant ([11]; 500 g ai/ha): 80; Plant response rating, Pigweed ([12]; 125 g ai/ha): 0; Plant response rating, Pigweed ([12]; 500 g ai/ha): 0; Plant response rating, Wheat ([13]; 125 g ai/ha): 0; Plant response rating, Wheat ([13]; 500 g ai/ha): 0; Plant response rating, Corn ([14]; 125 g ai/ha): 0; Plant response rating, Corn ([14]; 500 g ai/ha): 0; Plant response rating, Blackgrass ([15]; 125 g ai/ha): 0; Plant response rating, Blackgrass ([15]; 500 g ai/ha): 20; Plant response rating, Galium ([16]; 125 g ai/ha): 0; Plant response rating, Galium ([16]; 500 g ai/ha): 20; Plant response rating ([17]; 500 g ai/ha): 0; Plant response rating ([18]; 500 g ai/ha): 0; Plant response rating ([19]; 500 g ai/ha): 85; Plant response rating ([20]; 500 g ai/ha): 60 |
| O=C1NCC[C@@H](c2cccc(Cl)c2)[C@@H]1C(=O)Nc1cccc(F)c1F [Compound 43] | 0 | 0 | 0 | 0 | 0 | 0 | 0 | 0 | 0 | 0 | 0 | 0 | 0 | 0 | 0 | 0 | 0 | 0 | 0 | 0 | Plant response rating, Foxtail, Giant ([11]; 125 g ai/ha): 0; Plant response rating, Foxtail, Giant ([11]; 500 g ai/ha): 0; Plant response rating, Pigweed ([12]; 125 g ai/ha): 0; Plant response rating, Pigweed ([12]; 500 g ai/ha): 0; Plant response rating, Wheat ([13]; 125 g ai/ha): 0; Plant response rating, Wheat ([13]; 500 g ai/ha): 0; Plant response rating, Corn ([14]; 125 g ai/ha): 0; Plant response rating, Corn ([14]; 500 g ai/ha): 0; Plant response rating, Blackgrass ([15]; 125 g ai/ha): 0; Plant response rating, Blackgrass ([15]; 500 g ai/ha): 0; Plant response rating, Galium ([16]; 125 g ai/ha): 0; Plant response rating, Galium ([16]; 500 g ai/ha): 0; Plant response rating ([17]; 250 g ai/ha): 0; Plant response rating ([18]; 250 g ai/ha): 0; Plant response rating ([19]; 250 g ai/ha): 0; Plant response rating ([20]; 250 g ai/ha): 0 |
| O=C1NCCC(c2cccc(OC(F)(F)F)c2)C1C(=O)Nc1cccc(F)c1F (racemic) [Compound 39] | 80 | 90 | 0 | 0 | 0 | 0 | 30 | 70 | 90 | 90 | 0 | 10 | 80 | 80 | 0 | 0 | 0 | 0 | 0 | 50 | Plant response rating, Foxtail, Giant ([11]; 125 g ai/ha): 70; Plant response rating, Foxtail, Giant ([11]; 500 g ai/ha): 90; Plant response rating, Pigweed ([12]; 125 g ai/ha): 0; Plant response rating, Pigweed ([12]; 500 g ai/ha): 0; Plant response rating, Wheat ([13]; 125 g ai/ha): 0; Plant response rating, Wheat ([13]; 500 g ai/ha): 30; Plant response rating, Corn ([14]; 125 g ai/ha): 0; Plant response rating, Corn ([14]; 500 g ai/ha): 50; Plant response rating, Blackgrass ([15]; 125 g ai/ha): 0; Plant response rating, Blackgrass ([15]; 500 g ai/ha): 60; Plant response rating, Galium ([16]; 125 g ai/ha): 0; Plant response rating, Galium ([16]; 500 g ai/ha): 0; Plant response rating ([17]; 250 g ai/ha): 0; Plant response rating ([18]; 250 g ai/ha): 0; Plant response rating ([19]; 250 g ai/ha): 100; Plant response rating ([20]; 250 g ai/ha): 65 |
| O=C1NCCC(c2cccc(OC(F)F)c2)C1C(=O)Nc1ccccc1F (racemic) [Compound 45] | 20 | 70 | 0 | 0 | 0 | 0 | 0 | 0 | 40 | 80 | 0 | 0 | 0 | 60 | 0 | 0 | 0 | 0 | 0 | 0 | Plant response rating, Foxtail, Giant ([11]; 125 g ai/ha): 0; Plant response rating, Foxtail, Giant ([11]; 500 g ai/ha): 50; Plant response rating, Pigweed ([12]; 125 g ai/ha): 0; Plant response rating, Pigweed ([12]; 500 g ai/ha): 0; Plant response rating, Wheat ([13]; 125 g ai/ha): 0; Plant response rating, Wheat ([13]; 500 g ai/ha): 0; Plant response rating, Corn ([14]; 125 g ai/ha): 0; Plant response rating, Corn ([14]; 500 g ai/ha): 0; Plant response rating, Blackgrass ([15]; 125 g ai/ha): 0; Plant response rating, Blackgrass ([15]; 500 g ai/ha): 20; Plant response rating, Galium ([16]; 125 g ai/ha): 0; Plant response rating, Galium ([16]; 500 g ai/ha): 0; Plant response rating ([17]; 500 g ai/ha): 0; Plant response rating ([18]; 500 g ai/ha): 0; Plant response rating ([19]; 500 g ai/ha): 50; Plant response rating ([20]; 500 g ai/ha): 0 |
